Source: a melting point compilation (Tetko et al.; mined from patent text by program, amines drawn as free bases though some values may be those of a salt)

Structure (SMILES) | melting point [°C]
CC(SC1COC(c2ccc(C(=O)Nc3ccc(C(N)=O)cc3)cc2)OC1)C(O)(Cn1cncn1)c1ccc(F)cc1F (stereo not drawn) | 230
COc1ccnc(CSc2nc3c(OC(F)F)c(OC)c(OC)cc3[nH]2)c1C | 177 to 179
CCCCCCCCCCCCCCC(CCCCC(=O)O)CCCCC(=O)O | 48 to 50
COC(=O)c1ccc([N+](=O)[O-])cc1-n1c(CCl)nc2ccccc2c1=O | 158 to 159
COc1ccc(CSc2nc(NC(CO)CO)c3ncc(=O)[nH]c3n2)cc1Cl | 209 to 211
COc1ccc(/C(C)=C/C=C/C(=O)O)cc1 | 174 to 177
Cc1ccncc1-n1nc(C)c(CC(=O)OCC2CC2)c1-c1ccccc1 | 87
CC(OC(=O)c1cn(-c2ccc(F)cc2)c(-c2ccc(N(C)C)cc2)cc1=O)OC(=O)C(C)(C)C (stereo not drawn) | 117 to 120
c1cc2c3c(c1)Cc1c(ccc4c1OCO4)C3CNC2 (stereo not drawn) | 175 to 176
CC(C)(CO)c1cc(NC(=O)C(C)(C)S(=O)(=O)C2CCOCC2)on1 | 191 to 192
CS(=O)(=O)c1cccc(NC(=O)c2cnn3ccc(-c4ccc(Cl)cc4)nc23)c1 | 258 to 260
Cc1ccc(S(=O)(=O)Nc2cccc3ccc(Oc4ccc5nc(COc6ccc(CC7SC(=O)NC7=O)cc6)n(C)c5c4)cc23)cc1 (stereo not drawn) | 137 to 144
Cc1cc(C)n(-c2nc(NC3Cc4ccccc4C3)cc(N3CCOCC3)n2)n1 | 66 to 70
COCCOc1cc(OC)c2c(=O)[nH]c(-c3cc(C)nc(C)c3)nc2c1 | 229 to 230
CON1C(C)(C)CC(OC(=O)c2ccccc2C(=O)OC2CC(C)(C)N(OC)C(C)(C)C2)CC1(C)C | 124 to 126
N#CCCCCCCn1c(-c2ccccc2)nc(-c2ccccc2)c1-c1ccccc1 | 104 to 106
N#CCCc1cc(F)c2ncc(C(=O)NCc3ccc(Cl)cc3)c(O)c2c1 | 273 to 274
COC(=O)/C(=N\O)c1csc(NC(c2ccccc2)(c2ccccc2)c2ccccc2)n1 | 204 to 205
O=c1ccn(-c2cccc(C(F)(F)F)c2)nc1-c1nnnn1-c1ccccc1 | 172 to 173

Structure (SMILES) | melting point [°C]
COc1ccc2cc(C(O)=CC(C)=O)cc(F)c2c1 | 107 to 108
NC(Cc1ccccc1)C(O)C(O)C(N)Cc1ccccc1 (stereo not drawn) | 115 to 119
CC(C)OC(=O)Cn1c(=O)n(C)c(=O)n(-c2ccc(F)cc2Cl)c1=O | 127 to 128
CCOC(=O)COCC1CCCN(C(=O)c2cnc(NC(=N)N)s2)C1 (racemic) | 156
COC(=O)c1cccc(-c2cc(-c3ccccc3)on2)c1 | 99 to 100
Cc1ccc(Sc2ccc3c(c2)CC[C@H]2N(C)C(=O)CC[C@]32C)cc1 | 154 to 156
Cn1ncnc1COc1nc2c(-c3ccccc3F)nncn2c1-c1ccccc1 | 195
CNCC(O)c1cc(C)oc1C (stereo not drawn) | 76 to 77
O=C1CCc2cc(-c3cccnc3)ccc21 | 103 to 106
OCc1cccc(-c2ncc(Br)cn2)c1 | 115 to 116
C=C(C)CN(CCC12CC3CC(CC(C3)C1)C2)C(=O)NCCCc1ccncc1 | 108 to 109
CCOC(=O)c1cnc2n(c1=O)c1ccccc1c1ncc(C(=O)OCC)c(=O)n12 | 193 to 195
O=C(O)CCCc1cc(C(c2cc(F)ccc2F)S(=O)(=O)c2ccc(Cl)cc2)c(Cl)cn1 (stereo not drawn) | 147 to 148
Cc1c(NC(=O)c2ccc(OCC3CC3)cc2)ccc2cc(CN3CCC(C)(O)CC3)n(C)c12 | 152 to 155
Nc1sc2c(c1C(=O)c1ccc3c(c1)Cc1ccccc1-3)CCC2 | 176 to 182
O=C(Cc1ccc(F)cc1C(=O)O)Nc1cccc(/C=C/c2nc(C3CCC3)cs2)c1 | 211 to 212
Fc1ccc(Nc2nc(N/N=C/c3c(F)cccc3F)nc(N3CCOCC3)n2)cc1 | 156
COc1cc(OC)c(F)c(N2Cc3cnc(SC)nc3N(C3CC3)C2=O)c1F | 173 to 176
CCCn1c(=O)c2[nH]c(C3(N)CCCCC3)nc2n(CCC)c1=O | 172 to 173
